Consider one molecule from publication PMC5727165, “A switch in nucleotide affinity governs activation of the Src and Tec family kinases” (Scientific Reports, 2017).

Assay [1] addresses T1, Itk^32K (Homo sapiens, UniProt Q08881).
T1 construct: Human Itk^171–620 (Itk^32K); GST (cleaved yes); made in house; host or cells: baculovirus-infected Sf9 insect cells
T1 sequence (Q08881 171-620): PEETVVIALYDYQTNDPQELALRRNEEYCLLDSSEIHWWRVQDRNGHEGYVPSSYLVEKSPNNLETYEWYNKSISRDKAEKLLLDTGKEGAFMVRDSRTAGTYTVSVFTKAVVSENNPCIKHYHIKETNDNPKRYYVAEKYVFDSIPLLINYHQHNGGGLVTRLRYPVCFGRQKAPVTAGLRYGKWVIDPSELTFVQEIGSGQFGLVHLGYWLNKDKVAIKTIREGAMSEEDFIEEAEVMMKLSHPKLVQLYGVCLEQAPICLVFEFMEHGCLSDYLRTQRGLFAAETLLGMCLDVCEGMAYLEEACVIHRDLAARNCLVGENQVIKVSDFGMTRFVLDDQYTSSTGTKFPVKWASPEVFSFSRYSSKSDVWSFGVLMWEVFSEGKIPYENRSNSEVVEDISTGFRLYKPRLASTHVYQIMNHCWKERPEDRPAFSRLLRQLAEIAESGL
In words: Differential scanning fluorimetry (thermal stability vs nucleotide concentration). It is filed as binding. The conditions noted are these: same nucleotide concentrations, vs ATP or AMPPNP. How it is done: We noted that the thermal stability of Src^32K initially decreases at low concentrations of ATP, before rising again at higher concentrations. This was reproducible and correlates with autophosphorylation of Tyr416 during the course of the assay (Supplementary Fig. 4h). Thermal stabilities as a function of nucleotide concentration were measured by differential scanning fluorimetry (DSF). Samples contained 0.1 mg/ml protein in 50 mM Tris pH 7.5, 150 mM NaCl, 1 mM TCEP, and 5 mM MgCl2 with ADP, ATP, or AMPPNP concentrations ranging from 0–16 mM. Samples were measured in triplicate using a BioRad iQ™5 Multicolor Real-Time PCR Detection System. For detection of phosphorylated protein, samples were diluted and 1 ng and 15 ng were loaded to SDS-PAGE for Src and Itk proteins, respectively. Phosphorylation was measured by immunoblot.
On the technique in general: DSF heats the sample and reads unfolding from a dye or from intrinsic fluorescence.

Assay [2] concerns the target T2, Src^32K (Mus musculus, UniProt P05480).
T2 construct: mouse Src^85-535 (Src^32K); GST (cleaved yes); made in house; host or cells: baculovirus-infected Sf9 insect cells, co-expressed with human Csk
In words: Competition nucleotide displacement assay (Mant-ADP, fluorescence anisotropy). It is filed as binding. The following applies: Src^32K (pY527); displacement of Mant-ADP. The procedure: Figure 1 Autoinhibited Itk and Src kinases preferentially bind ADP. (a) Schematic of constructs evaluated in this study. Itk^32K, Src^32K, and Src^32KΔC contain the conserved module of SH3, SH2, and kinase (^32K) domains. Src^32K was truncated by […] to remove its C-terminal tail (inclusive of the Y527 phosphorylation site), generating a construct we refer to as Src^32KΔC (ΔC-tail). (b) Competition nucleotide displacement assay for Itk^32K. 40 μM Itk^32K was incubated with 40 μM Mant-ADP until equilibrium was established. Unlabelled ADP or AMPPNP was titrated into the reaction and fluorescence anisotropy monitored. Comparison of the equilibrium inhibition constants (K i) gives an indication of the relative strength of nucleotide binding. […] (c) Competition nucleotide displacement assay for Src^32K. 40 μM tail-phosphorylated Src^32K (pY527) or doubly phosphorylated Src^32K pY416 (pY527) was incubated with 40 μM Mant-ADP until equilibrium was established. Unlabelled ADP or AMPPNP was titrated into the reaction and fluorescence anisotropy monitored. Solid lines correspond to Src^32K, dashed lines to Src^32K pY416. AMPPNP binds to Src^32K with 20-fold weaker affinity than ADP. […] (d) Omit map showing clear electron density for ADP and a single magnesium ion in the nucleotide-binding pocket of Src. The magnesium is coordinated by Asn391, Asp404, and the α- and β- phosphates of ADP. The β-phosphate is directly coordinated by the guanidinium side chain of Arg388. […]
Since the concentration of ATP in the cell is typically higher than ADP[33],[34], we performed nucleotide competition assays in order to determine which nucleotide is bound in vivo. We measured the concentrations of ADP or AMPPNP required to displace Mant-ADP. […]
The binding constants for ADP and AMPPNP were determined for Src and Itk proteins by fluorescence anisotropy, using 2′/3′-Mant-labelled nucleotides (Jena Bioscience). […] Unlabelled nucleotide was titrated into the reaction and fluorescence anisotropy monitored. The equilibrium inhibition constant for the unlabelled nucleotide was calculated from the fitted curve.
(In fluorescence polarisation assays a small probe gives low polarisation when free and higher when bound to something large.)

The structures appear in SMILES notation. “Also recorded” adds a separate entry of the source.

T2 sequence (P05480 85-535): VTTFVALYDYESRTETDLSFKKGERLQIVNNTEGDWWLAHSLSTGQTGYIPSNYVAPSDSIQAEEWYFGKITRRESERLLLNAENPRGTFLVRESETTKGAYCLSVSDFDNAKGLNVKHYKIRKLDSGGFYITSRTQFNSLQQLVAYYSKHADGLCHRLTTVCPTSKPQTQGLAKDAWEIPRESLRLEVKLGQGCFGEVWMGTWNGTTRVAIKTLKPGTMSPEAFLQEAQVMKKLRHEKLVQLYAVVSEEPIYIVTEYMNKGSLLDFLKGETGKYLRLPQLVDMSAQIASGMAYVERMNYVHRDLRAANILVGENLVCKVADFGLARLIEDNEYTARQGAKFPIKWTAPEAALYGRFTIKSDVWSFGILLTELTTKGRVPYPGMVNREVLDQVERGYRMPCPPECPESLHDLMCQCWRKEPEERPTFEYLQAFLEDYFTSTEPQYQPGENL

Take `Nc1ncnc2c1ncn2[C@@H]1O[C@H](COP(=O)(O)OP(=O)(O)O)[C@@H](O)[C@H]1O` [ADP]: in assay [1], the “thermal stabilisation compared with other nucleotides” value is on record as “to a greater extent; also recorded: higher thermal stability”. In addition, the “fold difference in Ki, ADP preferred over AMPPNP” value in assay [2] was determined as 19 fold.
